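Briefly, cells in 96-well plates were exposed to five compound concentrations for 48 h, and endpoints were estimated by linear interpolation. At the GI50, growth is halved.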 Calls of active or inactive are those of the source. No stated cut-off is given here; in the data, active = GI50 up to about 1.1 µM and inactive = higher.
Tests used:
Experiment in all cases: growth of human tumour cells (NCI), 48 h
BT-549 = test system: BT-549
CAKI-1 = test system: CAKI-1
CCRF-CEM = test system: CCRF-CEM
COLO 205 = test system: COLO 205
EKVX = test system: EKVX
HOP-62 = test system: HOP-62
HT-29 = test system: HT-29
LOX IMVI = test system: LOX IMVI
M14 = test system: M14
MCF7 = test system: MCF7
MOLT-4 = test system: MOLT-4
NCI-H226 = test system: NCI-H226
NCI-H23 = test system: NCI-H23
OVCAR-3 = test system: OVCAR-3
OVCAR-8 = test system: OVCAR-8
SF-268 = test system: SF-268
SF-539 = test system: SF-539
SNB-19 = test system: SNB-19
U-251 = test system: U-251
UACC-62 = test system: UACC-62

SMILES	GI50 (BT-549)	GI50 (CAKI-1)	GI50 (CCRF-CEM)	GI50 (COLO 205)	GI50 (EKVX)	GI50 (HOP-62)	GI50 (HT-29)	GI50 (LOX IMVI)	GI50 (M14)	GI50 (MCF7)	GI50 (MOLT-4)	GI50 (NCI-H226)	GI50 (NCI-H23)	GI50 (OVCAR-3)	GI50 (OVCAR-8)	GI50 (SF-268)	GI50 (SF-539)	GI50 (SNB-19)	GI50 (U-251)	GI50 (UACC-62)
O=C1C(CN2CCCC2)CCCC1CN1CCCC1 (stereo not drawn)	1.87 µM (inactive)	1.64 µM (inactive)	0.0318 µM (active)	1.53 µM (inactive)	3.52 µM (inactive)	> 49.8 µM (inactive)	14.7 µM (inactive)	2.52 µM (inactive)	1.74 µM (inactive)	0.658 µM (active)	0.258 µM (active)	22.1 µM (inactive)	1.95 µM (inactive)	5.01 µM (inactive)	4.37 µM (inactive)	25.8 µM (inactive)	7.36 µM (inactive)	> 100 µM (inactive)	19.6 µM (inactive)	16.9 µM (inactive)
COc1ccc(/C=C/C(=O)c2cccc(C(=O)/C=C/c3ccc(OC)c(OC)c3)n2)cc1OC	6.15 µM (inactive)	> 57.9 µM (inactive)	1.05 µM (active)	> 68.2 µM (inactive)	> 95.9 µM (inactive)	> 89.7 µM (inactive)	7.87 µM (inactive)	2.02 µM (inactive)	32.7 µM (inactive)	3.64 µM (inactive)	2.82 µM (inactive)	> 100 µM (inactive)	29.2 µM (inactive)	> 54.8 µM (inactive)	3.27 µM (inactive)	36.9 µM (inactive)	14.4 µM (inactive)	27 µM (inactive)	6.52 µM (inactive)	21.7 µM (inactive)
COC(=O)[C@@H](NC(=O)c1ccc(CNC(=O)/C(C)=C/c2ccccc2)cc1)C(C)C	> 100 µM (inactive)	> 100 µM (inactive)	4.71 µM (inactive)	67.9 µM (inactive)	35.4 µM (inactive)	> 100 µM (inactive)	> 100 µM (inactive)	59.2 µM (inactive)	61.2 µM (inactive)	42.2 µM (inactive)	78.2 µM (inactive)	> 100 µM (inactive)	> 100 µM (inactive)	27.4 µM (inactive)	> 100 µM (inactive)	> 100 µM (inactive)	> 100 µM (inactive)	> 100 µM (inactive)	> 100 µM (inactive)	70 µM (inactive)
Cn1c(=O)c2c(-c3ccccc3)onc2n(C)c1=O	17.2 µM (inactive)	42.1 µM (inactive)	22.4 µM (inactive)	43.2 µM (inactive)	38.4 µM (inactive)	17.1 µM (inactive)	25.2 µM (inactive)	21.2 µM (inactive)	16.9 µM (inactive)	12.9 µM (inactive)	26.8 µM (inactive)	> 100 µM (inactive)	14 µM (inactive)	12.1 µM (inactive)	24 µM (inactive)	35.2 µM (inactive)	37.9 µM (inactive)	40.7 µM (inactive)	28.1 µM (inactive)	21.7 µM (inactive)
ClC1=NSSC1(Cl)Cl	41.6 µM (inactive)	18.5 µM (inactive)	6.47 µM (inactive)	14.7 µM (inactive)	58.3 µM (inactive)	> 100 µM (inactive)	30.5 µM (inactive)	40.8 µM (inactive)	19.8 µM (inactive)	32.3 µM (inactive)	14.8 µM (inactive)	> 100 µM (inactive)	> 100 µM (inactive)	25.2 µM (inactive)	24.4 µM (inactive)		40.5 µM (inactive)	90.4 µM (inactive)	56.6 µM (inactive)	45.7 µM (inactive)
O=C1CSC(c2cc3cc(Br)ccc3nc2Cl)N1c1ccc(F)c(Cl)c1 (stereo not drawn)	> 50 µM (inactive)	> 50 µM (inactive)	13.1 µM (inactive)	> 50 µM (inactive)	25.1 µM (inactive)	> 50 µM (inactive)	> 50 µM (inactive)	22.9 µM (inactive)	> 50 µM (inactive)	18.9 µM (inactive)	11.1 µM (inactive)	43.5 µM (inactive)	> 50 µM (inactive)	> 50 µM (inactive)	> 50 µM (inactive)	29.5 µM (inactive)	17.3 µM (inactive)	> 50 µM (inactive)		> 50 µM (inactive)
Clc1ccc(-c2cc(-c3cc4cc(Br)ccc4nc3Cl)on2)cc1	20.2 µM (inactive)	10.9 µM (inactive)	11.5 µM (inactive)	8.28 µM (inactive)	4.93 µM (inactive)	6 µM (inactive)	17.5 µM (inactive)	10 µM (inactive)	12.5 µM (inactive)	13.1 µM (inactive)	14.1 µM (inactive)	13.3 µM (inactive)	17.1 µM (inactive)	10 µM (inactive)	18.7 µM (inactive)	13.4 µM (inactive)	9.08 µM (inactive)	26.7 µM (inactive)		14.5 µM (inactive)
O=C(O)CC1NC(/C(=C/c2ccccc2O)NC(=O)c2ccccc2)OC1=O (stereo not drawn)	13.9 µM (inactive)	> 56.1 µM (inactive)	> 100 µM (inactive)	> 100 µM (inactive)	> 33.7 µM (inactive)	14 µM (inactive)	> 96.6 µM (inactive)	50.9 µM (inactive)	> 78 µM (inactive)	3.97 µM (inactive)	> 100 µM (inactive)	17 µM (inactive)	26.1 µM (inactive)	> 33.5 µM (inactive)	27.3 µM (inactive)	> 23.3 µM (inactive)	22.3 µM (inactive)	17.8 µM (inactive)	24.7 µM (inactive)	25.8 µM (inactive)
Cc1ccc(C2(N3CCCC3)OC(C)(C)c3cccc4cccc2c34)cc1 (stereo not drawn)	15.7 µM (inactive)	15.7 µM (inactive)	41.1 µM (inactive)	15.6 µM (inactive)	11.4 µM (inactive)	16 µM (inactive)	13.4 µM (inactive)	15.7 µM (inactive)	17.4 µM (inactive)	17.1 µM (inactive)	20.7 µM (inactive)	15.3 µM (inactive)	16.2 µM (inactive)	14.9 µM (inactive)	15.2 µM (inactive)	12.9 µM (inactive)	16.9 µM (inactive)	16.3 µM (inactive)	16 µM (inactive)	13.7 µM (inactive)
C1=N\c2ccc(cc2)/N=C\c2ccccc2OCc2cccc(n2)COc2ccccc2/1	> 100 µM (inactive)	> 100 µM (inactive)	> 100 µM (inactive)	> 100 µM (inactive)	> 100 µM (inactive)	30.1 µM (inactive)	> 100 µM (inactive)	> 100 µM (inactive)	> 100 µM (inactive)	> 100 µM (inactive)	> 100 µM (inactive)	> 100 µM (inactive)	> 100 µM (inactive)	> 100 µM (inactive)	> 100 µM (inactive)		10.7 µM (inactive)	21.1 µM (inactive)	45 µM (inactive)	> 100 µM (inactive)
Cc1cc(C2(O)C=C(C(C)(C)C)C(=O)C(C(C)(C)C)=C2)c(C)cc1C1(O)C=C(C(C)(C)C)C(=O)C(C(C)(C)C)=C1	> 100 µM (inactive)	> 100 µM (inactive)	> 100 µM (inactive)	> 100 µM (inactive)	> 100 µM (inactive)	> 100 µM (inactive)	> 100 µM (inactive)	> 100 µM (inactive)	> 100 µM (inactive)	> 100 µM (inactive)	> 100 µM (inactive)	> 100 µM (inactive)	> 100 µM (inactive)		> 100 µM (inactive)	> 100 µM (inactive)	> 100 µM (inactive)	> 100 µM (inactive)	> 100 µM (inactive)	> 100 µM (inactive)
Brc1ccc(C2C3CSc4ccccc4C3=NN2c2ccccc2)cc1 (stereo not drawn)	> 100 µM (inactive)	41 µM (inactive)	34.8 µM (inactive)	97.1 µM (inactive)		> 100 µM (inactive)	78.2 µM (inactive)	77.8 µM (inactive)	> 100 µM (inactive)	14.5 µM (inactive)	43 µM (inactive)	> 100 µM (inactive)	> 100 µM (inactive)	> 100 µM (inactive)	62.1 µM (inactive)	70.1 µM (inactive)	59 µM (inactive)	> 100 µM (inactive)	54.2 µM (inactive)	75.7 µM (inactive)
COc1ccc(NC(C(N)=O)c2cc3cc(Br)ccc3nc2Cl)cc1 (stereo not drawn)	31.4 µM (inactive)	> 100 µM (inactive)	26.2 µM (inactive)	41 µM (inactive)	28.1 µM (inactive)	59.8 µM (inactive)	> 100 µM (inactive)	44.6 µM (inactive)	42 µM (inactive)	32.4 µM (inactive)	20.2 µM (inactive)	> 100 µM (inactive)	> 100 µM (inactive)	60.7 µM (inactive)	57.1 µM (inactive)	76.4 µM (inactive)	19.1 µM (inactive)	> 100 µM (inactive)		52.7 µM (inactive)
C[N+](C)(C)CCOP(=O)([O-])OCCNC(=O)c1ccc2ccccc2c1	2.05 µM (inactive)	> 100 µM (inactive)	> 100 µM (inactive)	> 100 µM (inactive)	> 100 µM (inactive)	> 100 µM (inactive)	> 100 µM (inactive)	> 100 µM (inactive)	> 100 µM (inactive)	> 100 µM (inactive)	> 100 µM (inactive)	> 100 µM (inactive)	> 100 µM (inactive)	> 100 µM (inactive)	> 100 µM (inactive)	> 100 µM (inactive)	> 100 µM (inactive)	> 100 µM (inactive)	> 100 µM (inactive)	> 100 µM (inactive)

— ChEMBL document CHEMBL1201862, “PubChem BioAssay data set” (2004)
